Reference: paper PMC3555816, “A Lysine at the C-Terminus of an Odorant-Binding Protein is Involved in Binding Aldehyde Pheromone Components in Two Helicoverpa Species” (PLoS ONE, 2013)
Where two headings read alike, the source gives them in different places.

Tests used:
[1] = target: T1, HarmOBP7-wt (Helicoverpa armigera, UniProt F5ANI5); assay: Competitive binding assay, displacement of 1-NPN from HarmOBP7-wt; conditions: for Affinity to HarmOBP7 (in words): competitive binding with 1-NPN
Protocol: (§1) Emission fluorescence spectra were recorded on a Hitachi F-4500 at 25°C in a right angle configuration, with a 1 cm light path quartz cuvette and 5 nm slits for both excitation and emission. The protein was dissolved in 50 mM Tris-HCl buffer, pH 7.4, while ligands were added as 1 mM methanol solutions.
The probe was excited at 337 nm and emission spectra were recorded between 380 and 450 nm. […] Dissociation constant for 1-NPN and the stoichiometry of binding was obtained by processing the data with Prism software.

[2] = target: T2, HarmOBP7-m1 (Helicoverpa armigera, UniProt F5ANI5); assay: Fluorescence binding of 1-NPN to HarmOBP7-m1 (lacks the last 6 residues)
T2 sequence (F5ANI5 22-142): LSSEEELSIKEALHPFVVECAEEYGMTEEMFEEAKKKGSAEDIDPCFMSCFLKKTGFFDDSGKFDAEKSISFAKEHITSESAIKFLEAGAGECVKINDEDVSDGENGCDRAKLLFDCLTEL
Protocol: (§2) Emission fluorescence spectra were recorded on a Hitachi F-4500 at 25°C in a right angle configuration, with a 1 cm light path quartz cuvette and 5 nm slits for both excitation and emission. […]
(§3) The probe was excited at 337 nm and emission spectra were recorded between 380 and 450 nm. […] Dissociation constant for 1-NPN and the stoichiometry of binding was obtained by processing the data with Prism software. Dissociation constants of the competitors were calculated from the corresponding [IC]50 values (concentrations of ligands halving the initial fluorescence value of 1-NPN), using the equation: KD = [IC50]/1+[1-NPN]/K1-NPN, [1-NPN] being the free concentration of 1-NPN and K1-NPN being the dissociation constant of the complex protein/1-NPN.

[3] = target: T1, HarmOBP7-wt; assay: Fluorescence binding of 1-NPN to HarmOBP7-wt
Protocol: as §2, §3

[4] = target: HarmOBP7-m2 (Helicoverpa armigera, UniProt F5ANI5); assay: Fluorescence binding of 1-NPN to HarmOBP7-m2 (K123M); conditions: read-out: Dissociation constant of 1-NPN; HarmOBP7-m2, 2 µM protein in Tris, pH 7.4, three replicates, SD 0.22
Protocol: as §1, §3

[5] = HarmOBP7-wt, 2 µM protein and 2 µM 1-NPN, pH 7.4, concentration of ligand halving initial 1-NPN fluorescence, read-out: [IC]50
[6] = HarmOBP7-wt, calculated from [IC]50: KD = [IC50]/1+[1-NPN]/K1-NPN, read-out: KD (calculated dissociation constant)
[7] = HarmOBP7-wt, 2 µM protein and 2 µM 1-NPN, pH 7.4, values larger than 16 extrapolated from the competitive binding curves, read-out: [IC]50

T1 sequence (F5ANI5 entry or part of it): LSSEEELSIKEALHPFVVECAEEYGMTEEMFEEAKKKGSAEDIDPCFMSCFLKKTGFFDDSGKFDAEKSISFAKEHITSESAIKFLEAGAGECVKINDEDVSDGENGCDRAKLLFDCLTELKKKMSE
Sequence of HarmOBP7-m2 (F5ANI5 entry or part of it): as above

| IC50 [1, 5] | Kd [1, 6] | SMILES | also measured |
| --- | --- | --- | --- |
| 9.6 µM | 7.3 µM | CCCCCCCCCCCC(C)=O [2-Tridecanone] | – |
| 3.2 µM | 2.4 µM | CCCCCCCCCCCCCC=O [Tetradecanal] | – |
| – | – | CCCCCCCCCCCCCCO [1-Tetradecanol] | IC50 [1]: 6.7 µM; Kd [1]: 5.1 µM |
| – | – | Cc1ccc2ccccc2c1 [2-Methylnaphthalene] | IC50 [1]: > 16 µM |
| – | – | CCCCCCCCCC(=O)OCC [Ethyl decanoate] | IC50 [1, 7]: > 16 µM |
| – | – | O=Cc1ccccc1 [Benzaldehyde] | IC50 [1]: 10.8 µM; Kd [1]: 8.2 µM |
| 4.7 µM | 3.5 µM | CCCCCCCCCCCCCC(=O)OCC [Ethyl myristate] | – |
| 10.7 µM | 8.1 µM | CCCCCCCCCCC=O [Undecanal] | – |
| – | – | CCCC/C=C\CCCCCCCCCC=O [Z-11-hexadecenal] | Affinity to HarmOBP7 (in words) ([1]; HarmOBP7-wt): good affinity |
| 4.5 µM | 3.4 µM | CC(C)(C)c1ccc(C(=O)c2ccccc2)cc1 [p-tert-Butylbenzophenone] | – |
| – | – | c1ccc(Nc2cccc3ccccc23)cc1 [1-NPN, N-phenyl-1-naphthylamine] | Kd ([2]; HarmOBP7-m1, 2 µM protein in Tris, pH 7.4, three replicates, SD 1.1, read-out: Dissociation constant of 1-NPN): 6.8 µM; Effect of pH on affinity of 1-NPN (in words) ([2]; HarmOBP7-m1, pH range 3.5 to 9.5, basic conditions, no significant loss of binding down to pH 3.5): marked increase in affinity; Kd ([3]; 2 µM protein in Tris, pH 7.4, three replicates, SD 0.63, read-out: Dissociation constant of 1-NPN): 5.5 µM; Effect of pH on affinity of 1-NPN (in words) ([3]; pH range 3.5 to 9.5, basic conditions, no significant loss of binding down to pH 3.5): marked increase in affinity; Kd [4]: 3.2 µM |
| – | – | CCCCCCCCCCCCCCCCCCO [1-Octadecanol] | IC50 [1, 7]: > 25 µM |
| – | – | CCCCCCCCCCC(C)=O [2-Dodecanone] | IC50 [1, 7]: > 16 µM |
| – | – | CCCCCCCCCCCCCCCO [1-Pentadecanol] | IC50 [1, 7]: > 25 µM |
| – | – | COC(=O)C=Cc1ccccc1 [Methyl cinnamate] | IC50 [1, 7]: > 16 µM |
| 9.1 µM | 6.9 µM | CCCCCCCCCCCCCCCCC=O [Heptadecanal] | – |
| 3.5 µM | 2.7 µM | CC(C)CCCC(C)CCOC(=O)c1ccccc1 (stereo not shown) [3,7-Dimethyloctylbenzoate] | – |

| IC50 [1, 5] | Kd [1, 6] | SMILES | also measured |
| --- | --- | --- | --- |
| – | – | CCCCCCCCCCCCCCCCO [1-Hexadecanol] | IC50 [1, 7]: > 16 µM |
| 9.6 µM | 7.3 µM | CCCCOC(=O)/C=C/c1ccccc1 [Butyl cinnamate] | – |
| – | – | CCCCCC/C=C\CCCCCCCC=O [Z-9-hexadecenal] | Affinity to HarmOBP7 (in words) ([1]; HarmOBP7-wt): good affinity |
| – | – | CCCCCCCCCCO [1-Decanol] | IC50 [1]: > 16 µM |
| – | – | COc1ccc(-c2ccccc2)cc1 [4-Phenylanisole] | IC50 [1, 7]: > 16 µM |
| – | – | O=C(O)/C=C/c1ccccc1 [Cinnamic acid] | IC50 [1]: > 25 µM |
| 10.3 µM | 7.8 µM | CCCCCCCCCCCC=O [Dodecanal] | – |
| – | – | COc1cc(/C=C/C=O)ccc1O [Coniferyl aldehyde] | IC50 [1]: 12.7 µM; Kd [1]: 9.6 µM |
| – | – | CCCCCCCCCCCCO [1-Dodecanol] | IC50 [1, 7]: > 25 µM |
| 4.3 µM | 3.3 µM | CCCCCCCCCCCC(=O)OCC [Ethyl laurate] | – |
| – | – | COc1cc(CC(=O)O)ccc1O [Homovanillic acid] | IC50 [1]: > 16 µM |
| 14.7 µM | 11.1 µM | COc1ccccc1C=CC=O [2-Methoxycinnamaldehyde] | – |
| 4.9 µM | 3.7 µM | CCCCCCCCCCCCC=O [Tridecanal] | – |
| 4.6 µM | 3.5 µM | CCCCCCCCCCCCCO [1-Tridecanol] | – |
| 5.2 µM | 3.9 µM | CCCCCCCCCCCCOC(C)=O [Dodecyl acetate] | – |
| 12.6 µM | 12.6 µM | CCCCCCCCCCCCCCCC(=O)OCC [Ethyl palmitate] | – |

| SMILES | IC50 [1, 5] | Kd [1, 6] | also measured |
| --- | --- | --- | --- |
| CCCCOC(=O)c1ccc(C(C)(C)C)cc1 [Butyl p-tert-butyl benzoate] | 6.9 µM | 5.2 µM | – |
| CCCCC/C(C=O)=C/c1ccccc1 [α-Amylcinnamaldehyde] | 5.5 µM | 4.2 µM | – |
| CC(C)c1ccc(C=O)cc1 [p-Isopropylbenzaldehyde] | 10.5 µM | 7.9 µM | – |
